Data from paper PMC4204995, “Inhibition of Influenza Virus Replication by Targeting Broad Host Cell Pathways” (PLoS ONE, 2014).
“And” between values parts separate entries of the source, which are not always exact repeats. Identical values can stand only once. Counter-ions that a name gives are not always drawn. Like-named read-outs stand apart in the source and are kept apart here.

Experiments:
A/Hong Kong/X31 (H3N2) = experiment: microbe, parasite or virus in culture; type: cell-based, influenza A virus; details: read-out: EC50 values, A/Hong Kong/X31 (H3N2)
[1] = system: A/Puerto Rico/8/34 (H1N1); experiment: microbe, parasite or virus in culture; type: cell-based, influenza A virus; details: for EC50: read-out: EC50 values, A/Puerto Rico/8/34 (H1N1)
[2] = system: A/California-like/2009 (H1N1); experiment: microbe, parasite or virus in culture; type: cell-based, influenza A virus
[3] = system: viral acidic polymerase (PA) expression, PR8 virus; type: cell-based, influenza A virus
[4] = system: A/Swine/OTH-33-2/2009 (H1N1); type: cell-based, influenza A virus
PR8 virus = type: cell-based, influenza A virus
[5] = system: A/Puerto Rico/8/34 (H1N1); experiment: microbe, parasite or virus in culture; type: cell-based; details: Influenza A virus, H1N1 / PR8, Calu-3, 48 h, read-out: EC50 values
[6] = XTT cytotoxic assay in Calu-3 cells; type: cell-based; details: human
PR8 influenza virus = type: cell-based, influenza A virus
in vitro = details: dog
MDCK cells [7] = system: MDCK cells
[8] = XTT cytotoxicity assay in MDCK cells; details: dog
MDCK cells [9] = experiment: XTT cytotoxicity assay in MDCK cells; details: MDCK cells; for CC50: XTT cell viability, 2 days
[10] = Influenza A virus, H3N2, MDCK, 48 h
[11] = Influenza A virus, H1N1, MDCK, 48 h
[12] = Influenza A virus, H1N1, MDCK, 48 h, read-out: EC50 values, A/California-like/2009 (H1N1)
[13] = read-out: EC50 values, A/California-like/2009 (H1N1)

Row | SMILES | EC50 (A/Hong Kong/X31 (H3N2); [10]) [µM] | EC50 [1, 11] [µM] | EC50 [2, 12] [µM] | decrease of PA expression [3] | effect on viral replication (PR8 virus) | CC50 (in vitro) [µM] | further results
1 | CCN(CC)Cc1cc(Nc2ccnc3cc(Cl)ccc23)ccc1O [Amodiaquine, amodiaquin dihydrochloride dihydrate] | 2.63 ± 0.9 | 2.76 ± 0.95 | 1.48 ± 0.92 | 82% | abrogate viral replication | 26.2 ± 8.43 | reduction of PR8 replication [1]: ~26%; inhibition of replication [4]: more than 60%; EC50 [5]: 1.25 to 2.5 µM; CC50 [6]: 53.6 ± 8.8 µM; effect on viral replication in growth kinetics assays (PR8 influenza virus): inhibited viral replication
2 | CN(C)c1nc(N)c(C(=O)NC(=N)N)nc1Cl [5-(N,N-Dimethyl)amiloride hydrochloride, 5-(N,N-Dimethyl) amiloride hydrochloride] | 20.4 ± 8.62 | 31.1 ± 7.72 | 63.5 ± 5.77 | – | – | – | effect on PA gene expression [3]: almost completely abolished; inhibition of viral replication (PR8 virus): 80%; CC50 at 2 days (in vitro): 175 ± 10.2 µM
3 | C=C[C@H]1C[N@@]2CC[C@H]1C[C@H]2[C@H](O)c1ccnc2ccc(OC)cc12 [Quinine, Quinine sulfate] | 17.1 ± 8.7 | 9.1 ± 0.89 | 12.2 ± 8.49 | more than 90% | abrogate viral replication | 409 ± 82.2 | concentration needed to abrogate viral replication [1]: 50 µM; concentration needed to abrogate viral replication (PR8 virus): 60 µM
4 | OC(c1cc(C(F)(F)F)nc2c(C(F)(F)F)cccc12)C1CCCCN1 (stereo not shown) [Mefloquine, mefloquine hydrochloride] | 6.66 ± 0.75 | 5.13 ± 0.87 | – | 82% | – | 22.9 ± 1.3 | EC50 ([2]; Influenza A virus, H1N1, MDCK, read-out: EC50 values, A/California-like/2009 (H1N1), result as symbol): > 22.9 µM
5 | C=C[C@H]1C[N@@]2CC[C@H]1C[C@@H]2[C@@H](O)c1ccnc2ccc(OC)cc12 [Quinidine, quinidine anhydrous] | 19.8 ± 8.83 | 16.2 ± 8.9 | 5.11 ± 0.76 | more than 90% | – | 167 ± 94.2 | dose range at which IAV replication is inhibited [1]: ≥ 16.2 µM
6 | CCN(CC)CCCC(C)Nc1c2ccc(Cl)cc2nc2ccc(OC)cc12 (stereo not shown) [Quinacrine, quinacrine dihydrochloride] | 5.97 ± 0.91 | 2.96 ± 0.87 | 1.88 ± 0.87 | more than 90% | – | 14.6 ± 8.51 | inhibition of replication [4]: more than 60%; toxicity (MDCK cells [7]): no toxicity; cell death (MDCK cells [7]; dog): 10%
7 | CNc1ccc2oc(C[C@H]3O[C@@]4(CC[C@H]3C)O[C@H]([C@H](C)C(=O)c3ccc[nH]3)[C@H](C)C[C@H]4C)nc2c1C(=O)O [A23187 (calcimycin), calcimycin (A23187)] | 0.08 ± 0.01 | 0.08 ± 0.01 | 0.22 ± 0.01 | 42% | completely inhibit viral replication | – | CC50 at 2 days [8]: 0.413 ± 0.21 µM
8 | CCC(CC)O[C@@H]1C=C(C(=O)O)C[C@H](N)[C@H]1NC(C)=O [Oseltamivir carboxylate] | – | – | – | – | – | – | EC50 (A/Hong Kong/X31 (H3N2)): 0.00074 ± 8e-05 µM; reduction of PR8 replication [1]: approximately 30%; EC50 [1]: 0.05 µM and 0.0499 µM; EC50 [2, 13]: 0.103 ± 0.0321 µM; EC50 (PR8 virus): 0.313 µM; CC50 (MDCK cells [7]): > 1000 µM
9 | CCN(CC)CCCCCCCCOC(=O)c1cc(OC)c(OC)c(OC)c1.Cl [TMB-8, TMB-8 hydrochloride] | – | – | – | – | completely inhibit viral replication | – | EC50 (A/Hong Kong/X31 (H3N2)): 21.7 ± 9.31 µM; inhibition of PR8 replication ([1]; 10 µM): 90%; EC50 [1]: 2.5 ± 0.91 µM; EC50 [2, 13]: 12.7 ± 8.65 µM; effect on PA gene expression [3]: almost completely abolished; cell death (MDCK cells [7]): 25%; toxicity (MDCK cells [7]): no significant toxicity; CC50 (MDCK cells [9]): 52300 ± 8380 nM
10 | CCN(CC)CCCC(C)Nc1ccnc2cc(Cl)ccc12 (stereo not shown) [Chloroquine, chloroquine diphosphate salt] | 4.31 ± 0.96 | 0.61 ± 0.91 | 4.01 ± 0.8 | – | abrogate viral replication | – | inhibition of replication [4]: more than 60%
11 | COc1ccc(CCN(C)CCCC(C#N)(c2ccc(OC)c(OC)c2)C(C)C)cc1OC (stereo not shown) [Verapamil, verapamil hydrochoride] | 19.6 ± 8.75 | – | – | – | – | – | EC50 [5]: 1.25 to 2.5 µM
12 | COc1cc(NC(C)CCCN)c2ncccc2c1 (stereo not shown) [Primaquine, primaquine diphosphate] | 29.5 ± 9.42 | 8.58 ± 0.89 | 28.6 ± 9.45 | 62% | – | – | inhibition of replication [4]: less than 20%
13 | CO/C1=C\C(C)=C\[C@@H](C)[C@@H](O)[C@@H](C)C/C(C)=C/C=C/[C@H](OC)[C@@H]([C@@H](C)[C@@H](O)[C@H](C)[C@@]2(O)C[C@@H](O)[C@H](C)[C@@H](C(C)C)O2)OC1=O [Bafilomycin A, bafilomycin A] | – | – | – | more than 90% | – | – | EC50 [1]: 0.004 µM; EC50 ([2]; read-out: EC50 values, A/California-like/2009 (H1N1), result as symbol): < 0.004 µM; CC50 (MDCK cells [9]; footnote c: [ ] in nM): 16.8 ± 9.02 nM
14 | COc1cc(CNC(=O)CCCC/C=C/C(C)C)ccc1O [Capsaicin, capsaicin] | 55.2 ± 7.2 | 58.8 ± 8.32 | 44.7 ± 8.15 | approximately 48% | – | – | CC50 at 2 days [8]: 157 ± 9.63 µM; toxicity (MDCK cells [9]; at 100 µM): no significant toxicity; cell death (MDCK cells [9]; at 200 µM): 50%
